According to patent US6340455B1, “Testkit and method” (Peridoc AB, priority 1996, dated 2002):

System: individuals (patients with severe marginal periodontitis, healthy control individuals)
Assay: Skin Prick Test with Lipid A
Format: in vivo, human
Conditions: for % + with 0.1 mg Lipid A / % + with 1 mg Lipid A: result registered after 18 to 24 hours
Protocol: Skin Prick Test with Lipid A was performed on three groups of individuals:
Patients with severe marginal periodontitis which responds to treatment.
Healthy control individuals without marginal periodontitis.
(The test was performed according to a routine procedure as described in Aas K, Backman A, Berlin L, Weeke B. Standardization of allergen extracts with appropriate methods. The combined use of skin prick testing and standardization of allergen extracts. Acta Allergol 1978; 33:238-240, and in Malling H-J. The skin prick testing and the use of histamine references. Allergy 1984; 39:596-601).
Patient and disease characteristics for the three groups can be found in Table 1 below. GI (gingival index) was used as measure of active disease. […] The test substance was Lipid A dissolved in water (0.1 mg/ml and 1 mg/ml). Histamine (10 mg/ml in water) and water served as positive and negative controls, respectively. The result was registered after 18 to 24 hours.
Students t-test was employed to test levels of significance for differences between test and control groups.

[1] = healthy control individuals without marginal periodontitis, n=16
[2] = patients with severe marginal periodontitis which responds to treatment (GI ≦ 20), n=38
[3] = refractory patients: severe marginal periodontitis not responding to treatment (GI > 20), n=14

Compound: Lipid A
- % + with 0.1 mg Lipid A [1]: 18.8%
- % + with 1 mg Lipid A [1]: 50.0%
- % + with 0.1 mg Lipid A [2]: 21.1%
- % + with 1 mg Lipid A [2]: 57.9%
- response to Lipid A in skin prick test (in words) (refractory patients (severe marginal periodontitis not responding to treatment)): almost no positive response
- % + with 0.1 mg Lipid A [3]: 7.1%
- % + with 1 mg Lipid A [3]: 7.1%

Compound: NCCc1c[nH]cn1 [histamine]
- skin prick reaction (positive/negative) (all individuals of the three groups, histamine 10 mg/ml in water, positive control): reacted positively
